Patent publication US12528786B2, “Plasma kallikrein inhibitors” (Merck Sharp & Dohme LLC, priority 2020, dated 2026)

These compounds were tested against T1, Human plasma kallikrein (Homo sapiens, UniProt P03952) (assay: Kallikrein Assay (fluorogenic substrate hydrolysis, AFC release)). Details: purified Human plasma kallikrein 0.5 nM; substrate Acetyl-K—P—R-AFC 100 mM; 50 mM HEPES pH 7.4.
T1 construct: yields a heavy chain (371 amino acids) and a light chain (248 amino acids); purchased Enzyme Research Laboratories
T1 sequence (P03952 391-638 limits assumed): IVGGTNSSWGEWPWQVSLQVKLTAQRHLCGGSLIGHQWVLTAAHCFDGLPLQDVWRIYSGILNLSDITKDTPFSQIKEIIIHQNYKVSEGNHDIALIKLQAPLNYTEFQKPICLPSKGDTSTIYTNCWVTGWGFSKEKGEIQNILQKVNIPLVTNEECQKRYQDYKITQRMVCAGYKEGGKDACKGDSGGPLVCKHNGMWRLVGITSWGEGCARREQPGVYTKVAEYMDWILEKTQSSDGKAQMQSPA
T1 sequence (P03952 20-390 partner limits assumed): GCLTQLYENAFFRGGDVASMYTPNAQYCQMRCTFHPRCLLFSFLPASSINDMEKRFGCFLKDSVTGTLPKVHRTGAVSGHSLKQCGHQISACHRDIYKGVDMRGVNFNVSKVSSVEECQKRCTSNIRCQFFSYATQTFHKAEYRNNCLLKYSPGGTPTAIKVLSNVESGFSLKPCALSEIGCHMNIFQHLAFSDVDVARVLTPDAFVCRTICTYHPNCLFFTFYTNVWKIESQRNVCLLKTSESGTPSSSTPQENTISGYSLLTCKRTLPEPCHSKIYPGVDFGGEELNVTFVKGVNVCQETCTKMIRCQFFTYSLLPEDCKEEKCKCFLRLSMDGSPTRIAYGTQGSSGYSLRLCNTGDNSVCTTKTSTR
Type: biochemical
Outline: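 Enzyme–inhibitor equilibrated before substrate dilution to ≤0.2 Km; human plasma kallikrein at 0.5 nM final, Acetyl-K-P-R-AFC substrate, HEPES pH 7.4 buffer with NaCl, CaCl2, PEG 8000, at room temperature or 37° C. Linear-phase fluorescence rate gives percent inhibition, four-parameter logistic IC50, then Cheng-Prusoff Ki.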
With `Cc1c(C(C)n2cc(C(=O)NC3CC(c4cccc(Cl)c4)C3O)nn2)nnc(N2C[C@H]3C[C@H]3C2=O)c1C` (single isomer, unassigned) [Example 131, N-((1R,2R,3R or 1S,2S,3S))-3-(3-chlorophenyl)-2-hydroxycyclobutyl)-1-((S or R)-1-(4,5-dimethyl-6-((1R,5S)-2-oxo-3-azabicyclo[3.1.0]hexan-3-yl)pyridazin-3-yl)ethyl)-1H-1,2,3-triazole-4-carboxamide] the IC50 was 281 nM.
`Cc1c(C(C)n2cc(C(=O)NC3CC(c4cccc(Cl)c4)C3O)nn2)nnc(N2C[C@H]3C[C@H]3C2=O)c1C` (single isomer, unassigned) [Example 132, N-((1S,2S,3S or 1R,2R,3R))-3-(3-chlorophenyl)-2-hydroxycyclobutyl)-1-((S or R)-1-(4,5-dimethyl-6-((1R,5S)-2-oxo-3-azabicyclo[3.1.0]hexan-3-yl)pyridazin-3-yl)ethyl)-1H-1,2,3-triazole-4-carboxamide] was tested, and the IC50 was 279 nM.
Compound `Cc1ccc(C#N)c([C@H]2C[C@@H](NC(=O)c3cn(C(C)c4cnc(N5C[C@H]6C[C@H]6C5=O)c(C)c4)nn3)C2)c1` (single isomer, unassigned) [Example 133, N-((cis)-3-(2-cyano-5-methylphenyl)cyclobutyl)-1-((R or S)-1-(5-methyl-6-((1R,5S)-2-oxo-3-azabicyclo[3.1.0]hexan-3-yl)pyridin-3-yl)ethyl)-1H-1,2,3-triazole-4-carboxamide] has an IC50 of 2.5 nM.
`Cc1ccc(C#N)c([C@H]2C[C@@H](NC(=O)c3cn(C(C)c4cnc(N5C[C@H]6C[C@H]6C5=O)c(C)c4)nn3)C2)c1` (single isomer, unassigned) [Example 134, N-((cis)-3-(2-cyano-5-methylphenyl)cyclobutyl)-1-((S or R)-1-(5-methyl-6-((1R,5S)-2-oxo-3-azabicyclo[3.1.0]hexan-3-yl)pyridin-3-yl)ethyl)-1H-1,2,3-triazole-4-carboxamide] gave an IC50 of 5.4 nM.
Compound `Cc1ccc(C#N)c([C@H]2C[C@@H](NC(=O)c3cn(C(C)c4cnc(N5C[C@H]6C[C@H]6C5=O)c(F)c4C)nn3)C2)n1` (single isomer, unassigned) [Example 135, N-((cis)-3-(3-cyano-6-methylpyridin-2-yl)cyclobutyl)-1-((R or S)-1-(5-fluoro-4-methyl-6-((1R,5S)-2-oxo-3-azabicyclo[3.1.0]hexan-3-yl)pyridin-3-yl)ethyl)-1H-1,2,3-triazole-4-carboxamide] has an IC50 of 80 nM.
`Cc1ccc(C#N)c([C@H]2C[C@@H](NC(=O)c3cn(C(C)c4cnc(N5C[C@H]6C[C@H]6C5=O)c(F)c4C)nn3)C2)n1` (single isomer, unassigned) [Example 136, N-((cis)-3-(3-cyano-6-methylpyridin-2-yl)cyclobutyl)-1-((S or R)-1-(5-fluoro-4-methyl-6-((1R,5S)-2-oxo-3-azabicyclo[3.1.0]hexan-3-yl)pyridin-3-yl)ethyl)-1H-1,2,3-triazole-4-carboxamide] was tested, and the IC50 was 1.4 nM.
`C[C@H](c1cncc(N2C[C@H]3C[C@H]3C2=O)c1)n1cc(C(=O)N[C@H]2C[C@@H](c3cc(Cl)ccc3C#N)C2)nn1` (single isomer, unassigned) [Example 137] was tested, and the IC50 was 1.6 nM.
`C[C@@H](c1cncc(N2C[C@H]3C[C@H]3C2=O)c1)n1cc(C(=O)N[C@H]2C[C@@H](c3cc(Cl)ccc3C#N)C2)nn1` (single isomer, unassigned) [Example 138] showed an IC50 of 11.1 nM.
`Cc1ncc(C(C)n2cc(C(=O)N[C@H]3C[C@@H](c4cc(Cl)ccc4C#N)C3)nn2)cc1N1C[C@H]2C[C@H]2C1=O` (single isomer, unassigned) [Example 139, N-((cis)-3-(5-chloro-2-cyanophenyl)cyclobutyl)-1-((R or S)-1-(6-methyl-5-((1R,5S)-2-oxo-3-azabicyclo[3.1.0]hexan-3-yl)pyridin-3-yl)ethyl)-1H-1,2,3-triazole-4-carboxamide] was tested, and the IC50 was 1.4 nM.
For `Cc1ncc(C(C)n2cc(C(=O)N[C@H]3C[C@@H](c4cc(Cl)ccc4C#N)C3)nn2)cc1N1C[C@H]2C[C@H]2C1=O` (single isomer, unassigned) [Example 140, N-((cis)-3-(5-chloro-2-cyanophenyl)cyclobutyl)-1-((S or R)-1-(6-methyl-5-((1R,5S)-2-oxo-3-azabicyclo[3.1.0]hexan-3-yl)pyridin-3-yl)ethyl)-1H-1,2,3-triazole-4-carboxamide], the IC50 was 11.3 nM.
`[2H]C1(NC(=O)c2cn([C@@H](C)c3cnc(N4C[C@H]5C[C@H]5C4=O)cc3C)nn2)CC(C)(c2cc(Cl)ccc2C#N)C1` (single isomer, unassigned) [Example 145, N-((cis or trans)-3-(5-chloro-2-cyanophenyl)-3-methylcyclobutyl-1-d)-1-((S)-1-(4-methyl-6-((1R,5S)-2-oxo-3-azabicyclo[3.1.0]hexan-3-yl)pyridin-3-yl)ethyl)-1H-1,2,3-triazole-4-carboxamide] showed an IC50 of 126 nM.
In the case of `[2H]C1(NC(=O)c2cn([C@@H](C)c3cnc(N4C[C@H]5C[C@H]5C4=O)cc3C)nn2)CC(C)(c2cc(Cl)ccc2C#N)C1` (single isomer, unassigned) [Example 146, N-((trans or cis)-3-(5-chloro-2-cyanophenyl)-3-methylcyclobutyl-1-d)-1-((S)-1-(4-methyl-6-((1R,5S)-2-oxo-3-azabicyclo[3.1.0]hexan-3-yl)pyridin-3-yl)ethyl)-1H-1,2,3-triazole-4-carboxamide], the IC50 is reported as 0.7 nM.
For `Cc1c([C@H](C)n2cc(C(=O)NC3CC(c4cccc(Cl)c4)C3O)nn2)cnc(N2C[C@H]3C[C@H]3C2=O)c1C` (single isomer, unassigned) [Example 151, N-((1R,2R,3R or 1S,2S,3S))-3-(3-chlorophenyl)-2-hydroxycyclobutyl)-1-((S)-1-(4,5-dimethyl-6-((1R,5S)-2-oxo-3-azabicyclo[3.1.0]hexan-3-yl)pyridin-3-yl)ethyl)-1H-1,2,3-triazole-4-carboxamide], the IC50 was 1.1 nM.
Work on `Cc1c([C@H](C)n2cc(C(=O)NC3CC(c4cccc(Cl)c4)C3O)nn2)cnc(N2C[C@H]3C[C@H]3C2=O)c1C` (single isomer, unassigned) [Example 152, N-((1S,2S,3S or 1R,2R,3R))-3-(3-chlorophenyl)-2-hydroxycyclobutyl)-1-((S)-1-(4,5-dimethyl-6-((1R,5S)-2-oxo-3-azabicyclo[3.1.0]hexan-3-yl)pyridin-3-yl)ethyl)-1H-1,2,3-triazole-4-carboxamide] yielded an IC50 of 78 nM.
With `N#Cc1ccc(Cl)cc1[C@H]1C[C@@H](NC(=O)c2cn(C(CO)c3ccc(N4C[C@H]5C[C@H]5C4=O)nc3)nn2)C1` (single isomer, unassigned) [Example 154] the IC50 was 29.6 nM.
Work on `N#Cc1ccc(Cl)cc1[C@H]1C[C@@H](NC(=O)c2cn([C@H](CO)c3ccc(N4C[C@H]5C[C@H]5C4=O)nc3)nn2)C1` (single isomer, unassigned) [Example 155] yielded an IC50 of 28 nM.
With `Cc1cc([C@@](C)(O)c2cc(C(=O)N[C@H]3C[C@@H](c4cc(Cl)ccc4C#N)C3)no2)cnc1N1C[C@H]2C[C@H]2C1=O` (single isomer, unassigned) [Example 156] the IC50 was 0.7 nM.
`Cc1cc([C@](C)(O)c2cc(C(=O)N[C@H]3C[C@@H](c4cc(Cl)ccc4C#N)C3)no2)cnc1N1C[C@H]2C[C@H]2C1=O` (single isomer, unassigned) [Example 157] gave an IC50 of 24 nM.
`Cc1c([C@@H](C)n2cc(C(=O)N[C@H]3C[C@@H](c4cc(Cl)ccc4C#N)C3)nn2)nc(N2C[C@H]3C[C@H]3C2=O)n1C` (single isomer, unassigned) [Example 161] showed an IC50 of 95.9 nM.
`Cc1c([C@H](C)n2cc(C(=O)N[C@H]3C[C@@H](c4cc(Cl)ccc4C#N)C3)nn2)nc(N2C[C@H]3C[C@H]3C2=O)n1C` (single isomer, unassigned) [Example 162] was tested, and the IC50 was 3.7 nM.
`Cc1c([C@@H](C)n2cc(C(=O)NC3CC(c4cc(Cl)ccc4C#N)C3)nn2)cnc(N2C[C@H]3C[C@H]3C2=O)c1O` (single isomer, unassigned) [Example 163] showed an IC50 of 1.1 nM.
With `Cc1c(N2C[C@H]3C[C@H]3C2=O)ncc([C@@H](C)n2cc(C(=O)NC3CC(c4cc(Cl)ccc4C#N)C3)cn2)c1F` (single isomer, unassigned) [Example 165] the IC50 was 1 nM.
In the case of `Cc1c(N2C[C@H]3C[C@H]3C2=O)ncc(C(C)n2cc(C(=O)NC3CC(c4cc(Cl)ccc4C#N)C3)cn2)c1F` (single isomer, unassigned) [Example 166], the IC50 is reported as 1.2 nM.
`Cc1c([C@@H](C)n2cc(C(=O)NC3CC(c4cc(Cl)ccc4C#N)C3)cn2)cnc(N2C[C@H]3C[C@H]3C2=O)c1Cl` (single isomer, unassigned) [Example 167] was tested, and the IC50 was 1.9 nM.
Compound `Cc1c(C(C)n2cc(C(=O)NC3CC(c4cc(Cl)ccc4C#N)C3)cn2)cnc(N2C[C@H]3C[C@H]3C2=O)c1Cl` (single isomer, unassigned) [Example 168] has an IC50 of 0.1 nM.
`Cc1cc(N2C[C@H]3C[C@H]3C2=O)ncc1[C@@H](C)n1cc(C(=O)NC2CC(c3cc(Cl)ccc3C#N)C2)c([C@H](C)O)n1` (single isomer, unassigned) [Example 169] gave an IC50 of 0.8 nM.
Compound `Cc1cc(N2C[C@H]3C[C@H]3C2=O)ncc1[C@@H](C)n1cc(C(=O)NC2CC(c3cc(Cl)ccc3C#N)C2)c(C(C)O)n1` (single isomer, unassigned) [Example 170] has an IC50 of 0.7 nM.
Compound `Cc1cc(N2C[C@H]3C[C@H]3C2=O)ncc1C(C)n1cc(C(=O)NC2CC(c3cc(Cl)ccc3C#N)C2)c(C(C)O)n1` (single isomer, unassigned) [Example 171] has an IC50 of 5.6 nM.
In the case of `N#Cc1ccc(Cl)cc1[C@H]1C[C@@H](NC(=O)c2cnn(Cc3cnc(N4C[C@@H]5C[C@@H]5C4=O)nc3)c2)C1` (stereo in doubt) [Example 1, N-((cis)-3-(5-chloro-2-cyanophenyl)cyclobutyl)-1-((2-((1S,5R)-2-oxo-3-azabicyclo[3.1.0]hexan-3-yl)pyrimidin-5-yl)methyl)-1H-pyrazole-4-carboxamide], the IC50 is reported as 8.6 nM.
